Measured values published in ChEMBL document CHEMBL1143632, “Ligand-based prediction of active conformation by 3D-QSAR flexibility descriptors and their application in 3+3D-QSAR models” (J Med Chem, 2005).
pKi: −log10 of the molar value. Where a SMILES comes first, the peptide text is derived from it. [ ]: non-standard residue; d: D form. Dmt = Cc1cc(O)cc(C)c1C[C@H](N)C(=O)O

Assays:
[1] = species: Rattus norvegicus; test: Antinidatory effect was determined in rat; format: functional; set-up: unit not given here
[2] = target: Mu-type opioid receptor (Mus musculus, UniProt P42866); test: Inhibition of DAMGO (Tyr-[D-Ala]-Gly-[NMe-Phe]-Gly-ol) binding to mouse brain mu opioid receptor
Chain of Mu-type opioid receptor (Mus musculus, UniProt P42866) (P42866 whole entry): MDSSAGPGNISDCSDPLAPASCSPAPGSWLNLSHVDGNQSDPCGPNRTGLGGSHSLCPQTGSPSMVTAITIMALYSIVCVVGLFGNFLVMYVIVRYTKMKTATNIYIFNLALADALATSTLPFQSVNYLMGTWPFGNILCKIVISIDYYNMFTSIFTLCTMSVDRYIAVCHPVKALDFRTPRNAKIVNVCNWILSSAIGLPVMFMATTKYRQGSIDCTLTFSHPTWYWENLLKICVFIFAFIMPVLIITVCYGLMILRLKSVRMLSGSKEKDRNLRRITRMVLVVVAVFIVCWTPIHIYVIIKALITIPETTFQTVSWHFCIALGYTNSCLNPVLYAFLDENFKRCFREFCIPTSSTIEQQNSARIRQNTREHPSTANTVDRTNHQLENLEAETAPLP

[3] = target: T1, Mu-type opioid receptor (Rattus norvegicus, UniProt P33535); test: Inhibition of DAMGO (Tyr-[D-Ala]-Gly-[NMe-Phe]-Gly-ol) binding to rat brain mu opioid receptor
T1 sequence (P33535 whole entry): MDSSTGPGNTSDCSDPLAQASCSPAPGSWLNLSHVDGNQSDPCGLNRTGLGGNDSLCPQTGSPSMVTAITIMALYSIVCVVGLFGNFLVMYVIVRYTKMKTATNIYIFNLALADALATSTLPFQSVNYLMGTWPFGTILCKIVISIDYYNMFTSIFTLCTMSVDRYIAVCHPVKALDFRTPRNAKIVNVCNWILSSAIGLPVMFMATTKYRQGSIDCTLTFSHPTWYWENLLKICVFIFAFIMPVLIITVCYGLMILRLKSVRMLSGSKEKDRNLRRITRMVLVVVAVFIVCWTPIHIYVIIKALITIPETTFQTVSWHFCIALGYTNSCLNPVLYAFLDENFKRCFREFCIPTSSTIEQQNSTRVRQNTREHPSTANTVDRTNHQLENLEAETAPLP

[4] = target: T1, Mu-type opioid receptor; test: Inhibition of DAMGO (Tyr-[D-Ala]-Gly-[NMe-Phe]-Gly-ol) binding torat brain mu opioid receptor
[5] = target: T1, Mu-type opioid receptor; test: Inhibition of DAMGO (Tyr-[D-Ala]-Gly-[NMe-Phe]-Gly-ol) binding to rat brain opioid receptor

| SMILES | Log ED50 [1] | further results |
| --- | --- | --- |
| O=C(O)CC/C=C\CC[C@@H]1[C@@H](/C=C/[C@@H](O)CCc2ccccc2)[C@H](O)C[C@@H]1O | 2.301 |  |
| NC(=O)[C@H](Cc1ccccc1)NC(=O)[C@H](Cc1ccccc1)NC(=O)[C@H]1Cc2ccccc2[C@H]1NC(=O)[C@@H](N)Cc1ccc(O)cc1 |  | pKi [2]: 6.62 |
| O=C(O)/C=C/C/C=C/C[C@@H]1[C@@H](/C=C/[C@@H](O)COc2cccc(Cl)c2)[C@H](O)C[C@@H]1O | 2 |  |
| CCC(C)(C)CC[C@H](O)/C=C/[C@@H]1[C@@H](C/C=C\CCCC(=O)O)[C@@H](O)C[C@H]1O | 0.664 |  |
| C[C@@H](NC(=O)[C@@H](N)Cc1ccc(O)cc1)C(=O)N[C@@H](Cc1ccccc1)C(=O)NC(Cc1ccccc1)C(N)=O (single isomer, unassigned) |  | pKi [3]: 9.51 |
| CCCCCCC[C@H](O)/C=C/[C@@H]1[C@@H](C/C=C\CCCC(=O)O)[C@@H](O)C[C@H]1O | 0.669 |  |
| O=C(O)/C=C/CCCC[C@@H]1[C@@H](/C=C/[C@@H](O)COc2cccc(C(F)(F)F)c2)[C@H](O)C[C@@H]1O | 0.602 |  |
| O=C(O)C/C=C/C=C/C[C@@H]1[C@@H](/C=C/[C@@H](O)COc2ccccc2)[C@H](O)C[C@@H]1O | 1.699 |  |
| O=C(O)CCC/C=C\C[C@@H]1[C@@H](/C=C/[C@@H](O)C#Cc2cccs2)[C@H](O)C[C@@H]1O | 0.602 |  |
| O=C(O)/C=C/C/C=C\C[C@@H]1[C@@H](/C=C/[C@@H](O)COc2cccc(Cl)c2)[C@H](O)C[C@@H]1O | 2.301 |  |
| O=C(O)/C=C/C/C=C\C[C@@H]1[C@@H](/C=C/[C@@H](O)COc2cccc(C(F)(F)F)c2)[C@H](O)C[C@@H]1O | 2 |  |
| CCCCCCOC[C@H](O)/C=C/[C@@H]1[C@@H](C/C=C\CCCC(=O)O)[C@@H](O)C[C@H]1O | 0.699 |  |
| CCCOCCC[C@H](O)/C=C/[C@@H]1[C@@H](C/C=C\CCCC(=O)O)[C@@H](O)C[C@H]1O | -0.602 |  |
| NC(=O)[C@H](Cc1c[nH]c2ccccc12)NC(=O)[C@H](Cc1ccccc1)NC(=O)[C@@H]1CCCN1C(=O)[C@@H](N)Cc1ccc(O)cc1 (H-YPFW-NH2) |  | pKi [3]: 8.38 |
| C[C@H](c1ccccc1)[C@@H](NC(=O)[C@H](Cc1ccccc1)NC(=O)[C@@H]1CCCN1C(=O)[C@@H](N)Cc1ccc(O)cc1)C(N)=O |  | pKi [4]: 7.34 |
| O=C(O)CCC/C=C\C[C@@H]1[C@@H](/C=C/[C@@H](O)C#CC2CCCCC2)[C@H](O)C[C@@H]1O | 1.959 |  |
| Cc1cc(O)cc(C)c1C[C@H](N)C(=O)N1CCC[C@H]1C(=O)N[C@@H](Cc1ccccc1)C(=O)N[C@@H](Cc1ccccc1)C(N)=O |  | pKi [3]: 9.68 |
| C[C@@H](c1ccccc1)[C@H](NC(=O)[C@H](Cc1ccccc1)NC(=O)[C@@H]1CCCN1C(=O)[C@@H](N)Cc1ccc(O)cc1)C(N)=O |  | pKi [5]: 9.10 |
| Cc1cc(O)cc(C)c1C[C@H](N)C(=O)N1CCC[C@H]1C(=O)N[C@@H](Cc1ccccc1)C(=O)N[C@@H](Cc1c[nH]c2ccccc12)C(N)=O (H-[Dmt]PFW-NH2) |  | pKi [3]: 10.85 |
| O=C(O)/C=C/C/C=C\C[C@@H]1[C@@H](/C=C/[C@@H](O)COc2ccc(Cl)cc2)[C@H](O)C[C@@H]1O | 2 |  |
| O=C(O)CCC/C=C\C[C@@H]1[C@@H](/C=C/[C@@H](O)c2ccc(C(F)(F)F)cc2)[C@H](O)C[C@@H]1O | 1.699 |  |
| O=C(O)/C=C/C=C/C=C/[C@@H]1[C@@H](/C=C/[C@@H](O)COc2cccc(Cl)c2)[C@H](O)C[C@@H]1O | 0.699 |  |
| O=C(O)CCC/C=C\C[C@@H]1[C@@H](/C=C/[C@@H](O)C#Cc2ccco2)[C@H](O)C[C@@H]1O | 0 |  |
| O=C(O)CCC/C=C\C[C@@H]1[C@@H](/C=C/[C@@H](O)COc2ccc(F)cc2)[C@H](O)C[C@@H]1O | 2.301 |  |
| CCCCOCC[C@H](O)/C=C/[C@@H]1[C@@H](C/C=C\CCCC(=O)O)[C@@H](O)C[C@H]1O | -0.301 |  |

| SMILES | Log ED50 [1] | further results |
| --- | --- | --- |
| CCCCCOC[C@H](O)/C=C/[C@@H]1[C@@H](C/C=C\CCCC(=O)O)[C@@H](O)C[C@H]1O | 1 |  |
| O=C(O)/C=C\CCCC[C@@H]1[C@@H](/C=C/[C@@H](O)COc2cccc(C(F)(F)F)c2)[C@H](O)C[C@@H]1O | 0.482 |  |
| O=C(O)/C=C/C=C/C=C/[C@@H]1[C@@H](/C=C/[C@@H](O)COc2ccccc2)[C@H](O)C[C@@H]1O | 0.699 |  |
| CCCOC[C@H](O)/C=C/[C@@H]1[C@@H](C/C=C\CCCC(=O)O)[C@@H](O)C[C@H]1O | 0.398 |  |
| O=C(O)CCC/C=C\C[C@@H]1[C@@H](/C=C/[C@@H](O)C#Cc2ccccc2)[C@H](O)C[C@@H]1O | 1.699 |  |
| CCCCC(C)(C)[C@H](O)/C=C/[C@@H]1[C@@H](C/C=C\CCCC(=O)O)[C@@H](O)C[C@H]1O | 0.081 |  |
| C[C@@H](c1ccccc1)[C@@H](NC(=O)[C@H](Cc1ccccc1)NC(=O)[C@@H]1CCCN1C(=O)[C@@H](N)Cc1ccc(O)cc1)C(N)=O |  | pKi [5]: 6.97 |
| CCOCCCC[C@H](O)/C=C/[C@@H]1[C@@H](C/C=C\CCCC(=O)O)[C@@H](O)C[C@H]1O | 0.699 |  |
| CCCCOC[C@H](O)/C=C/[C@@H]1[C@@H](C/C=C\CCCC(=O)O)[C@@H](O)C[C@H]1O | 1 |  |
| COCCCCC[C@H](O)/C=C/[C@@H]1[C@@H](C/C=C\CCCC(=O)O)[C@@H](O)C[C@H]1O | 0.398 |  |
| NC(=O)C(Cc1ccccc1)NC(=O)[C@H](Cc1ccccc1)NC(=O)[C@H]1Cc2ccccc2CN1C(=O)[C@@H](N)Cc1ccc(O)cc1 (single isomer, unassigned) |  | pKi [3]: 6.78 |
| NC(=O)[C@H](Cc1ccccc1)NC(=O)[C@@H]1Cc2ccccc2[C@@H]1NC(=O)[C@@H]1CCCN1C(=O)[C@@H](N)Cc1ccc(O)cc1 |  | pKi [2]: 6.53 |
| Cc1cc(O)cc(C)c1C[C@H](N)C(=O)N1CCC[C@H]1C(=O)N[C@@H](Cc1ccccc1)C(=O)N[C@H](C(N)=O)[C@@H](C)c1ccccc1 |  | pKi [3]: 9.46 |
| O=C(O)CCC/C=C\C[C@@H]1[C@@H](/C=C/[C@@H](O)/C=C/c2ccccc2)[C@H](O)C[C@@H]1O | -0.602 |  |
| O=C(O)C/C=C/C=C\C[C@@H]1[C@@H](/C=C/[C@@H](O)COc2cccc(Cl)c2)[C@H](O)C[C@@H]1O | 2.886 |  |
| O=C(O)C/C=C/C=C\C[C@@H]1[C@@H](/C=C/[C@@H](O)COc2ccccc2)[C@H](O)C[C@@H]1O | 0 |  |
| O=C(O)/C=C/C=C/CC[C@@H]1[C@@H](/C=C/[C@@H](O)COc2cccc(Cl)c2)[C@H](O)C[C@@H]1O | 0.777 |  |
| COc1cccc(C#C[C@H](O)/C=C/[C@@H]2[C@@H](CCCCCCC(=O)O)[C@@H](O)C[C@H]2O)c1 | 2 |  |
| O=C(O)CCC/C=C/C[C@@H]1[C@@H](/C=C/[C@@H](O)C2CC2c2ccccc2)[C@H](O)C[C@@H]1O (stereo not given in full) | 1.398 |  |
| CCCC(C)(C)C[C@H](O)/C=C/[C@@H]1[C@@H](C/C=C\CCCC(=O)O)[C@@H](O)C[C@H]1O | 0.279 |  |
| O=C(O)/C=C/C/C=C\C[C@@H]1[C@@H](/C=C/[C@@H](O)COc2ccccc2)[C@H](O)C[C@@H]1O | 2.481 |  |
| NC(=O)[C@@H]1CCCN1C(=O)[C@H](Cc1ccccc1)NC(=O)[C@@H]1CCCN1C(=O)[C@@H](N)Cc1ccc(O)cc1 [MORPHICEPTIN] (H-YPFP-NH2) |  | pKi [3]: 7.10 |
| NC(=O)[C@H](Cc1ccccc1)NC(=O)[C@H](Cc1ccccc1)NC(=O)[C@@H]1Cc2ccccc2[C@@H]1NC(=O)[C@@H](N)Cc1ccc(O)cc1 |  | pKi [2]: 6.00 |
| C[C@H](c1ccccc1)[C@H](NC(=O)[C@H](Cc1ccccc1)NC(=O)[C@@H]1CCCN1C(=O)[C@@H](N)Cc1ccc(O)cc1)C(N)=O |  | pKi [5]: 7.58 |
| NC(=O)[C@H](Cc1ccccc1)NC(=O)[C@H]1Cc2ccccc2[C@H]1NC(=O)[C@@H]1CCCN1C(=O)[C@@H](N)Cc1ccc(O)cc1 |  | pKi [2]: 6.89 |
